Test results taken from US10059699B2, “Tetrahydroquinoline derivatives as bromodomain inhibitors” (GlaxoSmithKline Intellectual Property (No.2) Limited, priority 2014, dated 2018).
Read-outs that look alike come from different tables or passages of the source. Marks after values point to notes of the source that are not given here.

How the values were obtained:
IL-6 = experiment: LPS induced secretion of IL-6 from whole blood; assay type: cell-based; conditions: human whole blood, LPS 200 ng/mL, n=6; read-out: pIC50, LPS induced IL-6 secretion (converted)
Text: Activation in whole blood of predominantly monocytic cells by agonists of toll-like receptors such as bacterial lipopolysaccharide (LPS) results in production of key inflammatory mediators, including IL-6. Such pathways are widely considered to be central to the pathophysiology of a range of auto-immune and inflammatory disorders.
Human Whole Blood from 2 donors (n=2) is collected using Sodium heparin as anti-coagulent (Wockhardt cat# FP1712) (10 units of heparin/mL of blood). Compounds were prepared as [10 mM] DMSO stocks and then diluted such that the top starting concentration was [1.4 mM] followed by 8×3-fold dilutions in DMSO. Final assay concentrations start at [10 μM] for all compounds. 1 μL diluted compound was added per well in a 96-well U bottom plate. 1 μL DMSO only was added to column 10 (+ve control) and 1-((2S,4R)-2-methyl-4-(phenylamino)-6-(4-(piperidin-1-ylmethyl)phenyl)-3,4-dihydroquinolin-1(2H)-yl)ethanone (for a preparation see Compound 28, J. Med. Chem. 2014, 57, 8111-8131, 1 μL, 1.4 mM) added to column 11 (−ve control). […] 150 μL of 2×MSD Read Buffer T (stock 4×MSD Read Buffer T was diluted 50:50 with de-ionised water) was then added to each well and the plates read on the MSD Sector Imager 6000. Concentration response curves for each compound were generated from the data using internal XC50 analysis and an IC50 value was calculated.

[1] = tested on: multiple myeloma cells (OPM-2); experiment: Cancer cell line proliferation assay, OPM-2; assay type: cell-based; conditions: Homo sapiens, OPM-2 cells, 72 hours, CellTiter Glo, n = 2
Method: The impact of the compound of Examples 7 and 14 on cancer cell proliferation was determined using patient derived NUT midline carcinoma cells (11060), multiple myeloma cells (OPM-2, DSMZ) and biphenotypic B myelomonocytic leukaemia cells (MV-4-11, ATCC) in a 72 hour proliferation assay. 11060 and OPM-2 cells were maintained in RPMI 1640 medium (Invitrogen) supplemented with 10% HI-FBS (Heat-Inactivated Fetal Bovine Serum, Hyclone) and 2 mM L-glutamine (Invitrogen) at 37° C. and an atmosphere of 5% CO2. MV-4-11 cells were maintained in IMDM media supplemented with 10% HI-FCS, 2 mM L-glutamine, 1× Non-essential amino acids (Invitrogen) and 1× sodium pyruvate (1 mM) (Invitrogen). Cells were diluted to 1.11×10^5 cells/mL and 90 μL/well plated into black sided, clear bottomed 96 well tissue culture plates (Corning), using growth media supplemented with penicillin/streptomycin (Invitrogen). Cells were incubated overnight at 37° C. and in one plate, ATP levels were measured using the CellTiter Glo assay (Promega) according to the manufacturer's instructions, to give a baseline reading (t=0). 3-fold serial dilutions of compounds ranging from 6 mM to 0.3 μM were prepared in 100% DMSO. The DMSO dilution series was diluted 20-fold in growth media before 10 μl of the resulting dilutions were added to the appropriate wells of the remaining cell plates. The final compound concentrations in the wells ranged from 30 μM to 1.5 nM in 0.5% DMSO. Cells were incubated with compounds for 72 hours before assaying for ATP content using CellTiter Glo (t=72). CellTiter Glo data from each t=72 time point was normalised to the relevant t=0 time point data, and expressed as % t=0.

NMC11060 cells = experiment: Mouse xenograft tumour assay (NMC); assay type: in vivo; conditions: QD for 21 days, NOD/SCID mouse, day 21
Method: 1×10^7 NMC11060 cells, in 200 μl of 75% matrigel, were injected subcutaneously into each NOD/SCID mouse. Randomised oral administration of vehicle formulation, 1% Methycellulose (MC), or compound was initiated from the day tumour volume reached between 160-301 mm^3. Tumour volume was then measured every third day until either 21 days post inoculation or tumour volume had surpassed approximately 1000 mm^3.
Tumour growth inhibition=100−mean tumor volume of treatment group/mean tumour volume of control group×100. P values are derived from coefficient of variation analysis using software PASS 12, comparing vehicle against drug treated group. Based on day 21,* p<0.05, **p<0.01 and ***p<0.001

IC50 (IL-6): 200 nM
IC50 ([1]; full curve fit, read-out: Cellular Proliferation: pIC50 (converted)): 200 nM
IC50 ([1]; read-out: Cellular Proliferation: gpIC50 (converted)): 126 nM
SMILES: CC(=O)N1c2ccc(C(N)=O)cc2[C@H](Nc2ncc(Cl)cn2)C[C@@H]1C [Example 14, (2S,4R)-1-acetyl-4-((5-chloropyrimidin-2-yl)amino)-2-methyl-1,2,3,4-tetrahydroquinoline-6-carboxamide]
% TGI (NMC11060 cells; 10 mg/kg/day PO): 51* %
% TGI (NMC11060 cells; 30 mg/kg/day PO): 93*** %
